# According to patent US7132437B2, “Renal-selective biphenylalkyl 1H-substituted-1,2,4-triazole angiotensin II antagonists for treatment of hypertension” (G.D. Searle, priority 1990, dated 2006):
# pIC50: −log10 of the molar value.
# Columns and labels:
# [1] = target: T1, smooth muscle angiotensin II receptor; experiment: Assay A: Angiotensin II Binding Activity; settings: rat uterine membrane preparation, displacement of 125I-AII
# T1 construct: Rat uterine membranes were prepared from fresh tissue
# Procedure: Assay A: Angiotensin II Binding Activity
# Compounds of Formula I were tested for ability to bind to the smooth muscle angiotensin II receptor using a rat uterine membrane preparation. […] Other chemicals were obtained from Sigma Chemical Co. This assay was carried out according to the method of Douglas et al [Endocrinology, 106, 120–124 (1980)]. Rat uterine membranes were prepared from fresh tissue. All procedures were carried out at 4° C. Uteri were stripped of fat and homogenized in phosphate-buffered saline at pH 7.4 containing 5 mM EDTA. The homogenate was centrifuged at 1500×g for 20 min., and the supernatant was recentrifuged at 100,000×g for 60 min. The pellet was resuspended in buffer consisting of 2 mM EDTA and 50 mM Tris-HCl (pH 7.5) to a final protein concentration of 4 mg/ml. […] The reaction was initiated by the addition of membrane protein and the mixture was incubated at 25° C. for 60 min. The incubation was terminated with ice-cold 50 mM Tris-HCl (pH 7.5) and the mixture was filtered to separate membrane-bound labelled peptide from the free ligand. The incubation tube and filter were washed with ice-cold buffer. Filters were assayed for radioactivity in a Micromedic gamma counter. Nonspecific binding was defined as binding in the presence of 10 μM of unlabelled AII. Specific binding was calculated as total binding minus nonspecific binding. […] Binding data were analyzed by a nonlinear least-squares curve fitting program.
# rabbit aortic rings = experiment: Assay B: In Vitro Vascular Smooth Muscle Response for AII; assay type: cell-based; settings: antagonist at 10^-5 M, two values per cell = aorta rings from two rabbits
# Procedure: Assay B: In Vitro Vascular Smooth Muscle-Response for ATT
# Compounds of Formula I were tested for antagonist activity in rabbit aortic rings. Male New Zealand white rabbits (2–2.5 kg) were sacrificed using an overdose of pentobarbital and exsanguinated via the carotid arteries. The thoracic aorta was removed, cleaned of adherent fat and connective tissue and then cut into 3-mm ring segments. The endothelium was removed from the rings by gently sliding a rolled-up piece of filter paper into the vessel lumen. The rings were then mounted in a water-jacketed tissue bath, maintained at 37° C., between moveable and fixed ends of a stainless steel wire with the moveable end attached to an FT03 Grass transducer coupled to a Model 7D Grass Polygraph for recording isometric force responses. The bath was filled with 20 ml of oxygenated (95% oxygen/5% carbon dioxide) Krebs solution of the following composition […]: 130 NaCl, 15 NaHCO3, 15 KCl, 1.2 NaH2PO4, 1.2 MgSO4, 2.5 CaCl2, and 11.4 glucose. The preparations were equilibrated for one hour before approximately one gram of passive tension was placed on the rings. Angiotensin II concentration-response curves were then recorded (3×10^−10 to 1×10–5 M). Each concentration of AII was allowed to elicit its maximal contraction, and then AII was washed out repeatedly for 30 minutes before rechallenging with a higher concentration of AII. Aorta rings were exposed to the test antagonist at 10^−5 M for 5 minutes before challenging with AII. Adjacent segments of the same aorta ring were used for all concentration-response curves in the presence or absence of the test antagonist. The effectiveness of the test compound was expressed in terms of pA2 values and were calculated according to H. O. Schild [Br. J. Pharmacol. Chemother., 2, 189–206 (1947)]. […] Each test antagonist was evaluated in aorta rings from two rabbits.
# [2] = tested on: spontaneously hypertensive rats (SHR); experiment: Assay D: In Vivo Effects of Chronic Infusion of Conjugate (mean arterial pressure, heart rate); design: species or system rat
# Procedure: Assay D: In Vivo Effects of Chronic Infusion of Conjugate of the Invention
# (§1) This in vivo experiment was conducted to characterize the effects of the Example 79 conjugate on spontaneously hypertensive rats (SHR) by acute administration i.v. and by chronic administration i.v. The […] compound or saline vehicle was infused continuously for four days in SHR. Mean arterial pressure was measured (Gould Chart Recorder, model 3800; Statham P23 Db pressure transducer) via an indwelling femoral artery catheter between 10:00 a.m. and 2:00 P.M. each day. The Example 79 conjugate (10 mg/hr) or saline was infused via a jugular vein catheter with a Harvard infusion pump. […] A test was conducted to determine whether the Example 79 conjugate would antagonize non-renal, vascular angiotensin II receptors. In this test AII was administered by bolus injection (100 ng/kg) to the SHR rats (described above) on the control day and on days 1, 3 and 4 during conjugate infusion.
# [3] = target: T2, non-renal, vascular angiotensin II receptors (Rattus norvegicus, UniProt P25095); experiment: Assay D: AII pressor response during conjugate infusion (systemic AII antagonism); assay type: in vivo; settings: SHR; for AII Pressor Response: 10 mg/hr infusion, AII bolus 100 ng/kg, control day 31 ± 4
# T2 construct: from tissue; host or cells: whole animal: spontaneously hypertensive rat (SHR), systemic vasculature
# T2 sequence (P25095 1-359): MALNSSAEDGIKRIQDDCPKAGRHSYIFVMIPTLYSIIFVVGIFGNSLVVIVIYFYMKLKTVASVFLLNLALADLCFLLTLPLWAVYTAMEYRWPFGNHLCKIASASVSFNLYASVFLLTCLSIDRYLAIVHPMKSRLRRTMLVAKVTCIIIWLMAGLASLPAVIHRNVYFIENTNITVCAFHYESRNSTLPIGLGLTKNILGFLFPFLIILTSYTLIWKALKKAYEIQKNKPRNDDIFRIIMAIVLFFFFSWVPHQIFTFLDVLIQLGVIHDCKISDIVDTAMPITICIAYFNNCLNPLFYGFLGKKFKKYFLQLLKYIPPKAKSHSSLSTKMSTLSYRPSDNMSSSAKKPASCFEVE
# Procedure: as §1
compound,measurement,setting,value
"CCCCc1nc(-c2ccccc2)nn1Cc1ccc(-c2ccccc2-c2nnn[nH]2)cc1 (single isomer, unassigned) [Example 21, 5-[4′-[(3-phenyl-5-butyl-1H-1,2,4-triazol-1-yl)methyl](1,1′-biphenyl)-2-yl]-1H-tetrazole]",melting point,,113 °C (dec.)
same,pIC50,[1],7.06
"CCCCc1nc(-c2ccccc2)n(Cc2ccc(-c3ccccc3-c3nnn[nH]3)cc2)n1 (single isomer, unassigned) [Example 22, 5-[4′-[(3-butyl-5-phenyl-1H-1,2,4-triazol-1-yl)methyl](1,1′-biphenyl)-2-yl]-1H-tetrazole]",melting point,,205 °C (dec.)
same,Assay B pA2,rabbit aortic rings,6.46
same,pIC50,[1],6.34
"CCCCc1nc(C(OC)OC)n(Cc2ccc(-c3ccccc3-c3nnn[nH]3)cc2)n1 (single isomer, unassigned) [Example 23, 5-[4′-[[3-butyl-5-(dimethoxymethyl)-1H-1,2,4-triazol-1-yl]methyl][1,1′-biphenyl]-2-yl]-1H-tetrazole]",melting point,,152.5 to 153.5 °C
same,pIC50,[1],6.37
"CCCCc1nc(CCc2ccccc2)nn1Cc1ccc(-c2ccccc2-c2nnn[nH]2)cc1 (single isomer, unassigned) [Example 26]",melting point,,156 to 157.2 °C
same,Assay B pA2,rabbit aortic rings,9.66
same,pIC50,[1],8.49
"CCCCCCCCc1nc(CCCC)nn1Cc1ccc(-c2ccccc2-c2nnn[nH]2)cc1 (single isomer, unassigned) [Example 28, 5-[4′-[(3-butyl-5-octyl-1H-1,2,4-triazol-1-yl)methyl][1,1′-biphenyl]-2-yl]-1H-tetrazole]",melting point,,136.5 to 138 °C
same,pIC50,[1],6.24
"CCCCc1nc(C)nn1Cc1ccc(-c2ccccc2-c2nnn[nH]2)cc1 (single isomer, unassigned) [Example 32, 5-[4′-[(5-butyl-3-methyl-1H-1,2,4-triazol-1-yl)methyl][1,1′-biphenyl]-2-yl]-1H-tetrazole]",melting point,,170 to 170.5 °C
same,pIC50,[1],7.80
"CCCCc1nc(CCCC)n(Cc2ccc(-c3ccccc3C(=O)NNC(=O)CCC(NC(C)=O)C(=O)O)cc2)n1 (centres unmarked) [Ex. #18 Conjugate, N-acetylglutamic acid, 5-[[4′-[(3,5-dibutyl-1H-1,2,4-triazol-1-yl)methyl][1,1′-biphenyl]-2-yl]]carbonylhydrazide]",MAP (mean arterial pressure),"[2]; 10 mg/hr i.v. infusion, day 1, control day 183 ± 5, ± SD",159 ± 7 mm Hg
same,Heart Rate,"[2]; 10 mg/hr i.v. infusion, day 1, control day 352 ± 9, ± SD",395 ± 21 Beats/min.
same,MAP (mean arterial pressure),"[2]; 10 mg/hr i.v. infusion, day 2, control day 183 ± 5",155 ± 4 mm Hg
same,Heart Rate,"[2]; 10 mg/hr i.v. infusion, day 2, control day 352 ± 9",352 ± 12 Beats/min.
same,MAP (mean arterial pressure),"[2]; 10 mg/hr i.v. infusion, day 3, control day 183 ± 5",154 ± 6 mm Hg
same,Heart Rate,"[2]; 10 mg/hr i.v. infusion, day 3, control day 352 ± 9",344 ± 22 Beats/min.
same,MAP (mean arterial pressure),"[2]; 10 mg/hr i.v. infusion, day 4, control day 183 ± 5",166 ± 9 mm Hg
same,Heart Rate,"[2]; 10 mg/hr i.v. infusion, day 4, control day 352 ± 9",374 ± 20 Beats/min.
same,AII Pressor Response,"[3]; day 1, ± SD",30 ± 6
same,AII Pressor Response,[3]; day 3,29 ± 5
same,AII Pressor Response,[3]; day 4,25 ± 3
"CCCCc1nc(CCCC)n(Cc2ccc(-c3ccccc3C(=O)NNC(=O)CCC(NC(C)=O)C(=O)O)cc2)n1 (centres unmarked) [Example 79 conjugate, N-acetylglutamic acid, 5-[[4′-[(3,5-dibutyl-1H-1,2,4-triazol-1-yl)methyl][1,1′-biphenyl]-2-yl]]carbonylhydrazide]",mean arterial pressure compared to saline vehicle control,[2]; 10 mg/hr infused for four days,lowered mean arterial pressure
same,tachycardia,[2]; day 1 of conjugate infusion,Tachycardia was observed on day 1
same,Heart Rate,[2]; days 2 to 4 of conjugate infusion,heart rate was returned to control level during the next three days
same,systemic angiotensin II receptor antagonism,"[3]; AII bolus 100 ng/kg on control day and days 1, 3 and 4 of infusion",No evidence for systemic angiotensin II receptor antagonism was observed
